Where two headings read alike, the source gives them in different places.
System: T-47D ductal carcinoma cell line
Assay: MTT antiproliferative assay, T47D
Type: cell-based, human
Conditions: 72 h, 100–0.19 μM, read-out: IC50 (µM) ± SD T47D
Protocol: Breast cancer cell line MCF-7 (ATCC® HTB-22) and the drug-resistant subline of the human breast cancer MCF-7 (ECACC 86012803; KCR) were purchased from LGC Promochem (Teddington, UK). Both cell lines were cultured in Eagle’s Minimal Essential Medium (EMEM, containing 4.5 g/L glucose) supplemented with a non-essential amino acid mixture, a selection of vitamins, and 10% heat-inactivated fetal bovine serum. In every third passage, 0.56 µg/mL doxorubicin was added to the medium, in order to maintain the ABCB1 (P-glycoprotein) expression in KCR cells. A2780 human ovarian cancer cell line (ECACC, European Collection of Authentical Cell Culture, Sigma Cat.no. 93112519) was purchased from Merck KGaA (Darmstadt, Germany). The cisplatin-resistant human ovarian cancer cell line A2780cis (ECACC European Collection of Authentical Cell Culture, Sigma Cat.no. 93112517) was purchased from Merck KGaA (Darmstadt, Germany). The human ovarian cancer cell lines were cultured in RPMI 1640 medium supplemented with 10% heat-inactivated fetal bovine serum. […] HeLa (ATCC® CCL-2™) human cervix carcinoma cell line was purchased from LGC Promochem (Teddington, UK). The cells were cultured in Eagle’s Minimal Essential Medium (EMEM, containing 4.5 g/L glucose) supplemented with a non-essential amino acid mixture, a selection of vitamins, and 10% heat-inactivated fetal bovine serum. MRC-5 human embryonal lung fibroblast cell line (ATCC® CCL-171) was purchased from LGC Promochem, Teddington, UK. The cell line was cultured in Eagle’s Minimal Essential Medium (EMEM, containing 4.5 g/L glucose) supplemented with a non-essential amino acid mixture, a selection of vitamins, and 10% heat-inactivated fetal bovine serum. HTB-26 breast adenocarcinoma cell line was purchased from LGC Promochem, Teddington, UK. The cell line was cultured in RPMI 1640 medium supplemented with 10% heat-inactivated fetal bovine serum. T-47D (ATCC® HTB-133™) ductal carcinoma cell line was purchased from LGC Promochem, Teddington, UK. The cells were cultured in RPMI 1640 medium supplemented with 10% heat-inactivated fetal bovine serum, 2 mM L-glutamine, 1 mM Na-pyruvate, and 100 mM Hepes. All of the cells were incubated at 37 °C, in a 5% CO2 and 95% air atmosphere.
The antiproliferative effect of the compounds was determined on human breast (MCF-7, KCR, T47D, and HTB-26), cervical (HeLa), and ovarian (A2780 and A2780cis) cancer cells, and on MRC-5 (human embryonic lung fibroblast) cell lines. The adherent cells were cultured in 96-well flat-bottomed microtiter plates, using EMEM supplemented with 10% heat-inactivated fetal bovine serum or RPMI 1640 supplemented with 10% heat-inactivated fetal bovine serum, respectively. The density of the cells was adjusted to 6 × 10^3 cells in 100 μL per well, the cells were seeded for 24 h at 37 °C, with 5% CO2, and then the medium was removed from the plates, and fresh medium (100 μL per well) was added to the cells. The effects of increasing concentrations of compounds on cell proliferation were tested in 96-well flat-bottomed microtiter plates. The compounds were diluted in the appropriate medium; the dilutions of compounds were performed in separate plates and then added to the cells. The starting concentration of the compounds was 100 μM, and two-fold serial dilution was performed (concentration range: 100–0.19 μM). The culture plates were incubated at 37 °C for 72 h; at the end of the incubation period, 20 μL of MTT (thiazolyl blue tetrazolium bromide, Sigma) solution (from a stock solution of 5 mg/mL) was added to each well. After incubation at 37 °C for 4 h, 100 μL of sodium dodecyl sulfate (SDS) (Sigma) solution (10% in 0.01 M HCI) was added to each well, and the plates were further incubated, at 37 °C, overnight. Cell growth was determined by measuring the optical density (OD) at 540/630 nm, with a Multiscan EX ELISA reader (Thermo Labsystems, Cheshire, WA, USA). […]

Structure (SMILES)	IC50 (Homo sapiens, T47D)	IC50
C=CC1=C(C)C(=O)C=C2CCC3=C(C=CC(=O)C3(C)OCC)C21OCC (stereo not drawn) [Compound 2a]	56.3 ± 3.4 µM	–
C=CC1=C(C)C(=O)C=C2CCC3=C(C=CC(=O)C3(C)OCC)C21OCC (stereo not drawn) [Compound 2b]	–	30.3 ± 2.5 µM
C=CC1=C(C)C(=O)C=C2CCC3=C(C=CC(=O)C3(C)OC)C21OC (stereo not drawn) [Compound 1b]	36.5 ± 1 µM	–
C=CC1=CC(=O)C=C2CCC3=C(C=CC(=O)C3(C)OC)C12OC (stereo not drawn) [Compound 3]	7 ± 1 µM	–
C=CC1=CC(=O)C=C2CCC3=C(C=CC(=O)C3(C)OCC)C12OCC (stereo not drawn) [Compound 4b]	–	14.2 ± 0.6 µM
C=Cc1c(C)c(O)cc2c1-c1ccc(O)c(C)c1CC2 [juncusol]	25 ± 0.4 µM	–
C=Cc1cc(O)cc2c1-c1ccc(O)c(C)c1CC2 [effusol]	24.6 ± 1.9 µM	–
C=CC1=CC(=O)C=C2CCC3=C(C=CC(=O)C3(C)OCC)C12OCC (stereo not drawn) [Compound 4a]	11.6 ± 0.3 µM	–
N.N.[Cl][Pt][Cl] [Cisplatin, cisplatin, reference compound]	–	5.9 ± 0.1 µM
